In patent EP2345639A1, “Cyclic hydroxylamine derivatives, their preparation and use as antioxidants” (ABIOGEN PHARMA S.p.A., priority 2009, dated 2011):
Where two headings read alike, the source gives them in different places.

Key:
[1] = test system: doxorubicin-induced cerebral oxidative stress in mice; experiment: In vivo assay of cerebral oxidative stress induced in mice by doxorubicin (model and oxidized animals); settings: for inhibition in vivo at 50 mg/kg / change in vivo at 50 mg/kg: Mus musculus; for inhibition in vivo at 50 mg/kg: overall, read-out: inhibition of the doxorubicin effect
Description: The assay was carried out on compounds (1)-(5) and (7)-(11) and on edaravone (E) as comparative compound.
(§1) 10 mice were used for each treatment group. For each compound 50 mg/kg were administered intraperitoneally (IP) for three consecutive days (day 0, 1 and 2); half the animals (5) also received IP 16.7 mg/kg of doxorubicin immediately after the first treatment (day 0). On the day after the last administration (day 3) the animals were killed by neck dislocation and the brains were removed, weighed and frozen in liquid nitrogen.
(§2) For the analyses of oxidative stress, 100 mg/ml of brain homogenate was prepared in HEB^(*) buffer (pH 7.4 EDTA/HEPES^(**)) containing a mixture of enzyme inhibitors (Leupeptin, Pepstatin, Aprotinin, BHA).
(§3) The evaluation parameters were: • BrW/BWi: ratio between final brain weight and initial body weight (day 0); • Prot. Hmg: total proteins in the homogenate (BCA method, i.e. bicinchoninic acid); • Prot. Ox: oxidized proteins in the Hmg by means of a colorimetric method using dinitrophenylhydrazone (DNPH); • GSH: reduced glutathione in the supernatant (sn) of the Hmg, obtained after precipitation with metaphosphoric acid (MPA), by means of a colorimetric method using dithiodinitrobenzene (DTNB); • CAT: catalase in the Hmg by a colorimetric method using potassium dichromate; • SOD: superoxide dismutase by a colorimetric method using SOD Reagent (xanthine, EDTA, nitroblue tetrazole, Na2CO3, BSA, i.e. bovine serum albumin); • GST: glutathione S-transferase in the supernatant by a colorimetric method using chlorodinitrobenzene (CDNB) and GSH; and • GPx: glutathione peroxidase in the supernatant after addition of GSH and t-BuOOH, heating and precipitation with MPA; followed by GSH method with DTNB. The assay was performed on the compounds (1)-(5) and (7)-(11) and on edaravone (E), as comparative compound.
The mean effect (n=5 experiments) of doxorubicin (D), i.e. "oxidized" animal, relative to the vehicle (V), the vehicle representing the healthy animal.
All the parameters, with the exclusion of Brain/BWi and Prot. Hmg, were normalized for total Hmg proteins. The D value standard deviations and the % incidence relative to V are given in italics.
The effect of the tested compounds on the "oxidized" animals was given as % inhibition relative to the percentage change due to doxorubicin alone. The effect of the compounds on the oxidized animals can be expressed both as a function of the values of the vehicle (healthy, vehicle only) and as a function of the value of its own (healthy, compound only): • Vehicle: percentage [(Compound+D)/V]x100/[(V+D)/V]x100 • Its own: percentage [(Compound+D)/Compound]x100/[(V+D)/V]x100
Again in this case, the mean % effect relative to doxorubicin alone could be given for all the parameters simultaneously, as an approximate index of effectiveness on the cerebral oxidative state of the animal.

[2] = Brain-to-plasma concentration ratio in mice; type: in vivo, Female CD-1 mice; settings: female, CD-1, mouse, ip, 25 mg/kg intraperitoneal, area under the curve of brain and plasma concentrations 0 to 60 minutes, read-out: B/P ratio
Description: The ability of the compounds of the invention to penetrate the brain was investigated by measuring their brain/plasma (B/P) ratio in mice following intraperitoneal administration.
Female CD-1 mice were used (n=3 for each time period) and received the compounds of the invention by intraperitoneal administration, in 25 mg/kg doses in a 0.5% NaHCO3 buffer (pH 8.3). At predefined intervals following said administration, i.e. 5, 15, 30 and 60 minutes, the mice were killed and both plasma and total brain tissue were collected.
Specifically, after anaesthesia with ether, the animals were bled by blood withdrawal from the abdominal aorta then immediately decapitated. The blood samples were collected into plasma separator tubes containing Li-Heparin as anticoagulant and centrifuged. The resulting plasma was then stored at -20 °C. The brain was rapidly removed from the cranium and weighed, subsequently frozen and stored at -20 °C before treatment by homogenization and HPLC analysis.
The plasma was thawed and mixed with an equal volume of the extraction solution.
1 ml of solution was then extracted by adding 20 µl of 70% HClO4, then centrifuged at 15,500g for 5 minutes and injected into the HPLC.
Each brain was thawed and homogenized with the extraction solution to provide a final composition of 4 ml/1g of tissue by means of an Ultra-Turrax blender and sonicated for 5 minutes. After centrifugation of the homogenate at 15,500g for 5 minutes, the resulting solution was treated with HClO4, as indicated for the plasma. Specific chromatographic conditions had been developed for each analyte, the calibration curve being constructed for plasma and brain homogenate.

[3] = test system: healthy animals; experiment: Effect of the compounds on healthy animals (same in vivo assay, cerebral oxidative parameters); set-up: species or system mice; settings: for Average % variation with respect to the vehicle: 50 mg/kg IP for three consecutive days, mean over all parameters, D = doxorubicin alone
Description: as §1, §2, §3
The mean % effect, on all the parameters simultaneously, of the triple treatment in healthy animal, as mean percentage change relative to the vehicle. This value is useful as an approximate safety index of the oxidative state of the brain, i.e. the capacity of the compounds of the invention not to alter cerebral homeostasis in healthy animals.

[4] = TEAC method (Trolox Equivalent Antioxidant Capacity Assay); type: biochemical; settings: ratio of gradient to gradient of Trolox; 650 nm, 37 °C, about 90 minutes
Text: This assay is used to measure the total antioxidant activity of pure substances, biological fluids and plant compounds and is based on the reaction of antioxidants with the cation radical ABTS·^+ (2,2'-azinobis(3-ethylbenzothiazolin-6-sulphonate)). This cation radical is metastable and has to be generated just before the experiment by reacting ABTS with hydrogen peroxide in the presence of HRP. This radical can be reduced, with consequent loss of absorbance, by an antioxidant whose scavenging capacity can be measured spectrophotometrically at 650 nm. The test is carried out at 37 °C and the results are obtained from a comparison with Trolox (a synthetic antioxidant and hydrophilic analogue of vitamin E).
The ABTS solution S1 was prepared as follows: • 20 mg of ABTS were added to 50 mM of citric acid buffer (40 ml) at pH=4.5 and to the resulting solution there was added an aqueous solution of HRP (4.4 mg, 400 µl) and an aqueous solution of H2O2 (10 µl of a 30% solution diluted with 16.3 ml of water).
For each of the compounds (1)-(11), as synthesized above, there was prepared a 600 µM solution in water, methanol or DMSO according to its solubility, as well as a Trolox solution as reference.
Each solution was diluted to produce 6 solutions each at a concentration between 25 µM and 300 µM. From each of the diluted and divided solutions, there were withdrawn 20 µl to which 200 µl of solution S1 were then added.
The decrease in absorbance of each solution thus obtained was monitored at 650 nm until a stable value was reached (about 90 minutes).
For each set of 6 solutions and for the reference trolox solution, the absorption was given in graph form as a function of the amount of compound (nmol) in the solution. The gradient of the straight line obtained by linear interpolation was determined according to the least squares method. The TEAC value of each compound of the invention is given in the table below and is expressed as the ratio between the gradient of the resulting straight line and the gradient of the reference (trolox) straight line.

[5] = ip, compared with its own vehicle
[6] = ip, oxidized mice, % inhibition relative to change due to doxorubicin alone, vs its own, read-out: Brain/BWi its own
[7] = ip, oxidized mice, % inhibition relative to change due to doxorubicin alone, vs its own, read-out: CAT/pr its own
[8] = ip, oxidized mice, % inhibition relative to change due to doxorubicin alone, vs its own, read-out: GPX/pr its own
[9] = ip, oxidized mice, % inhibition relative to change due to doxorubicin alone, vs its own, read-out: GSH/pr its own
[10] = ip, oxidized mice, % inhibition relative to change due to doxorubicin alone, vs its own, read-out: GST/pr its own
[11] = ip, oxidized mice, % inhibition relative to change due to doxorubicin alone, vs its own, read-out: Prot. Hmg its own
[12] = ip, oxidized mice, % inhibition relative to change due to doxorubicin alone, vs its own, read-out: Prot. Ox/pr its own
[13] = ip, oxidized mice, % inhibition relative to change due to doxorubicin alone, vs its own, read-out: SOD/pr its own
[14] = ip, oxidized mice, % inhibition relative to change due to doxorubicin alone, vs vehicle, read-out: Brain/BWi vehicle
[15] = ip, oxidized mice, % inhibition relative to change due to doxorubicin alone, vs vehicle, read-out: CAT/pr vehicle
[16] = ip, oxidized mice, % inhibition relative to change due to doxorubicin alone, vs vehicle, read-out: GPX/pr vehicle
[17] = ip, oxidized mice, % inhibition relative to change due to doxorubicin alone, vs vehicle, read-out: GSH/pr vehicle
[18] = ip, oxidized mice, % inhibition relative to change due to doxorubicin alone, vs vehicle, read-out: GST/pr vehicle
[19] = ip, oxidized mice, % inhibition relative to change due to doxorubicin alone, vs vehicle, read-out: Prot. Hmg vehicle
[20] = ip, oxidized mice, % inhibition relative to change due to doxorubicin alone, vs vehicle, read-out: Prot. Ox/pr vehicle
[21] = ip, oxidized mice, % inhibition relative to change due to doxorubicin alone, vs vehicle, read-out: SOD/pr vehicle
[22] = oxidized mice, 50 mg/kg IP x3 days + doxorubicin, computed as a function of its own (healthy, compound only), read-out: mean % effect relative to doxorubicin alone, all parameters (Its own)
[23] = healthy mice, 50 mg/kg IP x3 days, percentage change relative to the vehicle

SMILES | inhibition in vivo at 50 mg/kg [1, 5] [%] | change in vivo at 50 mg/kg [1, 6] [%] | change in vivo at 50 mg/kg [1, 7] [%] | change in vivo at 50 mg/kg [1, 8] [%] | change in vivo at 50 mg/kg [1, 9] [%] | change in vivo at 50 mg/kg [1, 10] [%] | change in vivo at 50 mg/kg [1, 11] [%] | change in vivo at 50 mg/kg [1, 12] [%] | change in vivo at 50 mg/kg [1, 13] [%] | change in vivo at 50 mg/kg [1, 14] [%] | change in vivo at 50 mg/kg [1, 15] [%] | change in vivo at 50 mg/kg [1, 16] [%] | change in vivo at 50 mg/kg [1, 17] [%] | change in vivo at 50 mg/kg [1, 18] [%] | change in vivo at 50 mg/kg [1, 19] [%] | change in vivo at 50 mg/kg [1, 20] [%] | change in vivo at 50 mg/kg [1, 21] [%] | change in vivo at 50 mg/kg [1, 22] [%] | Kp [2] | Average % variation with respect to the vehicle ([3]; healthy mice, 50 mg/kg) | other results
O=C1CC(c2ccccc2)CC(=O)C1C1COCCN1O (centres unmarked) [(5), 2-(4-hydroxymorpholin-3-yl)-5-phenylcyclohexane-1,3-dione] | 45 to 50 | -128 | -24.2 | -14.1 | -40.8 | -27.5 | -42.2 | -43.6 | 3.5 | -49.3 | 7.6 | -7.1 | -21.6 | -8.8 | -12 | -15.7 | -4.2 | -47.5 | > 0.1 | did not significantly alter the parameters | Average % variation with respect to the vehicle ([3]; healthy mice, listed as V+(5), 50 mg/kg): -3.2%; Prot. Hmg [3, 23]: 5.0%; Brain/BWi ([3]; mouse, in vivo, ip, 50 mg/kg): 0.1%; CAT/pr ([3]; mouse, in vivo, ip, 50 mg/kg): -8.1%; GPX/pr ([3]; mouse, in vivo, ip, 50 mg/kg): -4.1%; GSH/pr ([3]; mouse, in vivo, ip, 50 mg/kg): -6.7%; GST/pr ([3]; mouse, in vivo, ip, 50 mg/kg): -5.8%; Prot. Ox/pr ([3]; mouse, in vivo, ip, 50 mg/kg): 1.8%; SOD/pr ([3]; mouse, in vivo, ip, 50 mg/kg): -3.7%; TEAC [4]: 1.2
O=C1CCC(=O)C1C1COCCN1O (centres unmarked) [(7), 2-(4-hydroxymorpholin-3-yl)-cyclopentane-1,3-dione] | ~85 | -85.5 | -45.5 | -30.3 | -138 | -29.7 | -48.2 | 20.3 | -23.8 | 21.7 | 2.3 | -23.2 | -60.8 | -22 | -14.5 | -22.1 | -25.9 | -85.5 | > 0.1 | did not significantly alter the parameters | Average % variation with respect to the vehicle ([3]; healthy mice, listed as V+(7), 50 mg/kg): -3.5%; Brain/BWi [3, 23]: -9.8%; CAT/pr [3, 23]: -11.6%; GPX/pr [3, 23]: -0.8%; GSH/pr [3, 23]: -9.5%; GST/pr [3, 23]: -0.5%; Prot. Hmg [3, 23]: 3.6%; Prot. Ox/pr [3, 23]: -7.2%; SOD/pr [3, 23]: 0.5%; TEAC [4]: 1.5
O=c1oc2ccccc2c(O)c1C1COCCN1O (centres unmarked) [(10), 4-hydroxy-3-(4-hydroxymorpholin-3-yl)-2H-chromen-2-one] | ~85 | -65.2 | -115 | -117 | -87.2 | -128 | -113 | -45.3 | -18.9 | -73.9 | -34.1 | -103 | -14.4 | -84.6 | -43.4 | -32.6 | 2.1 | -86.2 | > 0.1 | did not significantly alter the parameters | inhibition in vivo at 50 mg/kg ([1]; ip, with respect to the vehicle): ≥ 50%; mean % effect relative to doxorubicin alone, all parameters (Vehicle) ([1]; oxidized mice, 50 mg/kg IP x3 days + doxorubicin, computed as a function of the vehicle): -48.0%; Average % variation with respect to the vehicle ([3]; healthy mice, listed as V+(10), 50 mg/kg): -4.4%; Prot. Hmg [3, 23]: 3.1%; Brain/BWi ([3]; mouse, in vivo, ip, 50 mg/kg): -5.9%; CAT/pr ([3]; mouse, in vivo, ip, 50 mg/kg): -8.2%; GPX/pr ([3]; mouse, in vivo, ip, 50 mg/kg): -0.8%; GSH/pr ([3]; mouse, in vivo, ip, 50 mg/kg): -3.2%; GST/pr ([3]; mouse, in vivo, ip, 50 mg/kg): -1.2%; Prot. Ox/pr ([3]; mouse, in vivo, ip, 50 mg/kg): 5.4%; SOD/pr ([3]; mouse, in vivo, ip, 50 mg/kg): 2.1%; TEAC [4]: 1.4
